Reference: the CheMixHub ionic liquid set

Test: xn = mol fraction of the nth substance listed
Conditions: for viscosity: 100 kPa; for electrical conductivity: 101 kPa

CCCn1cc[n+](C)c1C.O=[N+]([O-])c1cn[n-]c1 + COCCOCCOCCOCCOC
Conditions | viscosity [mPa·s]
278.15 K, x2 = 0.399 | 252
283.15 K, x2 = 0.1 | 1670
283.15 K, x2 = 0.201 | 743
283.15 K, x2 = 0.499 | 88
288.15 K, x2 = 0.1 | 929
288.15 K, x2 = 0.201 | 449
298.15 K, x2 = 0.399 | 62
313.15 K, x2 = 0.201 | 76

CCCCCCCCCCCCCC[P+](CCCCCC)(CCCCCC)CCCCCC.N#Cc1ccc[n-]1 + CCCCCC[n+]1ccn(C)c1C.O=S(=O)([N-]S(=O)(=O)C(F)(F)F)C(F)(F)F
Conditions | viscosity [mPa·s]
278.15 K, x2 = 0.799 | 900
283.15 K, x2 = 0.601 | 900
288.15 K, x2 = 0 | 800
288.15 K, x2 = 0.098 | 870
288.15 K, x2 = 0.301 | 760

CCC(=O)[O-].C[N+](C)(C)CCO + CCCO + O
x1 = 0.00408, x2 = 0.5431
Conditions | viscosity [mPa·s]
288.15 K | 3.537
298.15 K | 2.571
308.15 K | 1.931

CCCCCCCCCCCC[N+](C)(C)Cc1ccccc1.[Cl-] + CC(C)[C@H](N)C(=O)O + O
electrical conductivity [S/m]
Conditions | 293.15 K | 298.15 K | 303.15 K | 308.15 K | 313.15 K
x2 = 0.0008891, x1 = 0.0003 | 0.0839 | 0.0943 | 0.106 | 0.118 | 0.132
x2 = 0.0008891, x1 = 0.000319 | 0.087 | 0.0977 | 0.11 | 0.123 | 0.137
x2 = 0.0008892, x1 = 0.0001722 | 0.0627 | 0.0699 | 0.0776 | 0.0856 | 0.0943
x2 = 0.0008892, x1 = 0.0001982 | 0.0677 | 0.0756 | 0.0841 | 0.0932 | 0.103
x2 = 0.0008892, x1 = 0.000222 | 0.0717 | 0.0802 | 0.0894 | 0.0993 | 0.11
x2 = 0.0008892, x1 = 0.0002429 | 0.0751 | 0.0841 | 0.0939 | 0.104 | 0.116
x2 = 0.0008892, x1 = 0.0002636 | 0.0783 | 0.0878 | 0.0982 | 0.109 | 0.122
x2 = 0.0008892, x1 = 0.0002822 | 0.0812 | 0.0912 | 0.102 | 0.114 | 0.127
x2 = 0.0008893, x1 = 7.858e-05 | 0.0307 | 0.0345 | 0.0383 | 0.0422 | 0.046
x2 = 0.0008893, x1 = 9.958e-05 | 0.0385 | 0.0432 | 0.0479 | 0.0528 | 0.0577
x2 = 0.0008893, x1 = 0.0001218 | 0.0467 | 0.0524 | 0.058 | 0.064 | 0.0701
x2 = 0.0008893, x1 = 0.0001461 | 0.0553 | 0.0619 | 0.0686 | 0.0756 | 0.0827
x2 = 0.0008894, x1 = 5.704e-05 | 0.0227 | 0.0255 | 0.0283 | 0.0312 | 0.034
x2 = 0.001757, x1 = 5.785e-05 | 0.0228 | 0.0256 | 0.0285 | 0.0315 | 0.0345
x2 = 0.001757, x1 = 7.859e-05 | 0.0304 | 0.0341 | 0.0379 | 0.0418 | 0.0458
x2 = 0.001757, x1 = 0.0001001 | 0.0382 | 0.0428 | 0.0475 | 0.0528 | 0.0574
x2 = 0.001757, x1 = 0.000121 | 0.0457 | 0.0512 | 0.0568 | 0.0628 | 0.0689
x2 = 0.001757, x1 = 0.0001443 | 0.0537 | 0.0601 | 0.0666 | 0.0735 | 0.0809
x2 = 0.001757, x1 = 0.0001688 | 0.0607 | 0.0676 | 0.075 | 0.0828 | 0.0914
x2 = 0.001757, x1 = 0.0001945 | 0.0657 | 0.0733 | 0.0815 | 0.0905 | 0.1
x2 = 0.001757, x1 = 0.0002205 | 0.07 | 0.0783 | 0.0872 | 0.0971 | 0.108
x2 = 0.001757, x1 = 0.0002437 | 0.0737 | 0.0826 | 0.0919 | 0.103 | 0.114
x2 = 0.001757, x1 = 0.0002647 | 0.0773 | 0.0864 | 0.0965 | 0.108 | 0.12
x2 = 0.001757, x1 = 0.0002841 | 0.0803 | 0.09 | 0.101 | 0.112 | 0.126
x2 = 0.001757, x1 = 0.0003021 | 0.0834 | 0.0937 | 0.105 | 0.117 | 0.13
x2 = 0.001757, x1 = 0.0003234 | 0.0872 | 0.0978 | 0.11 | 0.122 | 0.136
